# PubChem BioAssay (NCI)
#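 Test compounds were applied to cells in 96-well plates for 48 hours at 5 doses. TGI marks complete inhibition of growth.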
# Experiments:
# Experiment in all cases: growth of human tumour cells (NCI), 48 h
# K-562 leukemia = tested on: K-562 leukemia
# HT29 colon = tested on: HT29 colon
# OVCAR-8 ovarian = tested on: OVCAR-8 ovarian
# PC-3 prostate = tested on: PC-3 prostate
# CAKI-1 renal = tested on: CAKI-1 renal
# BT-549 breast = tested on: BT-549 breast
# HL-60(TB) leukemia = tested on: HL-60(TB) leukemia
# SK-MEL-28 melanoma = tested on: SK-MEL-28 melanoma
# UACC-62 melanoma = tested on: UACC-62 melanoma
# IGROV1 ovarian = tested on: IGROV1 ovarian
# UO-31 renal = tested on: UO-31 renal
# 786-0 renal = tested on: 786-0 renal
# HCC-2998 colon = tested on: HCC-2998 colon
# U251 CNS = tested on: U251 CNS
# LOX IMVI melanoma = tested on: LOX IMVI melanoma
# HCT-15 colon = tested on: HCT-15 colon
# KM12 colon = tested on: KM12 colon
# NCI-H522 lung = tested on: NCI-H522 lung
# MDA-MB-231 breast = tested on: MDA-MB-231 breast
# OVCAR-5 ovarian = tested on: OVCAR-5 ovarian
# MALME-3M melanoma = tested on: MALME-3M melanoma
# MDA-N = tested on: MDA-N
# SF-268 CNS = tested on: SF-268 CNS
# SR leukemia = tested on: SR leukemia
# ACHN renal = tested on: ACHN renal
# NCI/ADR-RES ovarian = tested on: NCI/ADR-RES ovarian
# SNB-19 CNS = tested on: SNB-19 CNS
# MDA-MB-435 = tested on: MDA-MB-435
# CCRF-CEM leukemia = tested on: CCRF-CEM leukemia
# NCI-H23 lung = tested on: NCI-H23 lung
# SF-539 CNS = tested on: SF-539 CNS
# T-47D breast = tested on: T-47D breast
# SW-620 colon = tested on: SW-620 colon
# HS 578T breast = tested on: HS 578T breast
# COLO 205 colon = tested on: COLO 205 colon
# OVCAR-3 ovarian = tested on: OVCAR-3 ovarian
# SN12C renal = tested on: SN12C renal
# MOLT-4 leukemia = tested on: MOLT-4 leukemia
# NCI-H226 lung = tested on: NCI-H226 lung
# A549 NSCLC = tested on: A549 NSCLC
# RPMI-8226 leukemia = tested on: RPMI-8226 leukemia
# OVCAR-4 ovarian = tested on: OVCAR-4 ovarian
# A498 renal = tested on: A498 renal
# TK-10 renal = tested on: TK-10 renal
# NCI-H460 lung = tested on: NCI-H460 lung
# SF-295 CNS = tested on: SF-295 CNS
# SK-OV-3 ovarian = tested on: SK-OV-3 ovarian
# HOP-62 NSCLC = tested on: HOP-62 NSCLC
# SK-MEL-5 melanoma = tested on: SK-MEL-5 melanoma
# UACC-257 melanoma = tested on: UACC-257 melanoma
# SK-MEL-2 melanoma = tested on: SK-MEL-2 melanoma
# HOP-92 NSCLC = tested on: HOP-92 NSCLC
# RXF 393 renal = tested on: RXF 393 renal
# SNB-75 CNS = tested on: SNB-75 CNS
# HCT-116 colon = tested on: HCT-116 colon
# DU-145 prostate = tested on: DU-145 prostate
# MCF7 breast = tested on: MCF7 breast
# M14 melanoma = tested on: M14 melanoma
# EKVX NSCLC = tested on: EKVX NSCLC
compound,measurement,setting,value
CC(=O)C1C(=O)C(C(C)=O)C2C3C=CC(C3)C12 (centres undefined),TGI,K-562 leukemia,> 100 µM
same,TGI,HT29 colon,> 100 µM
same,TGI,OVCAR-8 ovarian,> 100 µM
same,TGI,PC-3 prostate,> 100 µM
same,TGI,CAKI-1 renal,> 100 µM
same,TGI,BT-549 breast,> 100 µM
same,TGI,HL-60(TB) leukemia,> 100 µM
same,TGI,SK-MEL-28 melanoma,> 100 µM
same,TGI,UACC-62 melanoma,> 100 µM
same,TGI,IGROV1 ovarian,> 100 µM
same,TGI,UO-31 renal,> 100 µM
same,TGI,786-0 renal,> 100 µM
same,TGI,HCC-2998 colon,> 100 µM
same,TGI,U251 CNS,> 100 µM
same,TGI,LOX IMVI melanoma,> 100 µM
same,TGI,HCT-15 colon,> 100 µM
same,TGI,KM12 colon,> 100 µM
same,TGI,NCI-H522 lung,> 100 µM
same,TGI,MDA-MB-231 breast,> 100 µM
same,TGI,OVCAR-5 ovarian,> 100 µM
same,TGI,MALME-3M melanoma,> 100 µM
same,TGI,MDA-N,> 100 µM
same,TGI,SF-268 CNS,> 100 µM
same,TGI,SR leukemia,> 100 µM
same,TGI,ACHN renal,> 100 µM
same,TGI,NCI/ADR-RES ovarian,> 100 µM
same,TGI,SNB-19 CNS,> 100 µM
same,TGI,MDA-MB-435,> 100 µM
same,TGI,CCRF-CEM leukemia,> 100 µM
same,TGI,NCI-H23 lung,> 100 µM
same,TGI,SF-539 CNS,> 100 µM
same,TGI,T-47D breast,> 100 µM
same,TGI,SW-620 colon,> 100 µM
same,TGI,HS 578T breast,> 100 µM
same,TGI,COLO 205 colon,> 100 µM
same,TGI,OVCAR-3 ovarian,> 100 µM
same,TGI,SN12C renal,> 100 µM
same,TGI,MOLT-4 leukemia,> 100 µM
same,TGI,NCI-H226 lung,> 100 µM
same,TGI,A549 NSCLC,> 100 µM
same,TGI,RPMI-8226 leukemia,> 100 µM
same,TGI,OVCAR-4 ovarian,> 100 µM
same,TGI,A498 renal,> 100 µM
same,TGI,TK-10 renal,> 100 µM
same,TGI,NCI-H460 lung,> 100 µM
same,TGI,SF-295 CNS,> 100 µM
same,TGI,SK-OV-3 ovarian,> 100 µM
same,TGI,HOP-62 NSCLC,> 100 µM
same,TGI,SK-MEL-5 melanoma,> 100 µM
same,TGI,UACC-257 melanoma,> 100 µM
same,TGI,SK-MEL-2 melanoma,> 100 µM
same,TGI,HOP-92 NSCLC,> 100 µM
same,TGI,RXF 393 renal,> 100 µM
same,TGI,SNB-75 CNS,> 100 µM
same,TGI,HCT-116 colon,> 100 µM
same,TGI,DU-145 prostate,> 100 µM
same,TGI,MCF7 breast,> 100 µM
CCO[C@H]1O[C@@H]2OC3(C)CCC4[C@H](C)CCC([C@H]1C)[C@]42OO3 (some centres undefined),TGI,K-562 leukemia,> 100 µM
same,TGI,HT29 colon,> 100 µM
same,TGI,OVCAR-8 ovarian,51.7 µM
same,TGI,PC-3 prostate,> 100 µM
same,TGI,CAKI-1 renal,> 100 µM
same,TGI,BT-549 breast,> 100 µM
same,TGI,M14 melanoma,> 100 µM
same,TGI,HL-60(TB) leukemia,13.2 µM
same,TGI,SK-MEL-28 melanoma,> 100 µM
same,TGI,UACC-62 melanoma,> 100 µM
same,TGI,IGROV1 ovarian,> 100 µM
same,TGI,UO-31 renal,> 100 µM
same,TGI,786-0 renal,> 100 µM
same,TGI,HCC-2998 colon,> 100 µM
same,TGI,U251 CNS,> 100 µM
same,TGI,LOX IMVI melanoma,> 100 µM
same,TGI,HCT-15 colon,> 100 µM
same,TGI,KM12 colon,> 100 µM
same,TGI,NCI-H522 lung,> 100 µM
same,TGI,MDA-MB-231 breast,> 100 µM
same,TGI,OVCAR-5 ovarian,> 68.6 µM
same,TGI,MALME-3M melanoma,> 100 µM
same,TGI,MDA-N,> 100 µM
same,TGI,SF-268 CNS,> 100 µM
same,TGI,SR leukemia,> 100 µM
same,TGI,ACHN renal,> 100 µM
same,TGI,NCI/ADR-RES ovarian,> 100 µM
same,TGI,SNB-19 CNS,> 100 µM
same,TGI,MDA-MB-435,> 100 µM
same,TGI,CCRF-CEM leukemia,> 100 µM
same,TGI,NCI-H23 lung,> 100 µM
same,TGI,SF-539 CNS,> 100 µM
same,TGI,T-47D breast,> 100 µM
same,TGI,SW-620 colon,> 100 µM
same,TGI,HS 578T breast,> 100 µM
same,TGI,COLO 205 colon,25.5 µM
same,TGI,OVCAR-3 ovarian,99.8 µM
same,TGI,SN12C renal,> 100 µM
same,TGI,MOLT-4 leukemia,> 100 µM
same,TGI,NCI-H226 lung,> 100 µM
same,TGI,A549 NSCLC,> 100 µM
same,TGI,RPMI-8226 leukemia,> 100 µM
same,TGI,OVCAR-4 ovarian,> 100 µM
same,TGI,A498 renal,> 100 µM
same,TGI,TK-10 renal,> 100 µM
same,TGI,NCI-H460 lung,> 100 µM
same,TGI,EKVX NSCLC,> 100 µM
same,TGI,SF-295 CNS,> 100 µM
same,TGI,SK-OV-3 ovarian,> 100 µM
same,TGI,HOP-62 NSCLC,> 100 µM
same,TGI,SK-MEL-5 melanoma,> 100 µM
same,TGI,SK-MEL-2 melanoma,> 100 µM
same,TGI,HOP-92 NSCLC,> 100 µM
same,TGI,RXF 393 renal,> 100 µM
same,TGI,SNB-75 CNS,> 100 µM
same,TGI,HCT-116 colon,> 100 µM
same,TGI,DU-145 prostate,> 100 µM
same,TGI,MCF7 breast,> 100 µM
c1ccc(SCCc2ccncc2)cc1,TGI,K-562 leukemia,> 100 µM
same,TGI,HT29 colon,> 100 µM
same,TGI,OVCAR-8 ovarian,> 100 µM
same,TGI,PC-3 prostate,> 100 µM
same,TGI,CAKI-1 renal,> 100 µM
same,TGI,BT-549 breast,> 100 µM
same,TGI,M14 melanoma,> 100 µM
same,TGI,HL-60(TB) leukemia,> 100 µM
same,TGI,SK-MEL-28 melanoma,> 100 µM
same,TGI,UACC-62 melanoma,> 100 µM
same,TGI,IGROV1 ovarian,> 100 µM
same,TGI,UO-31 renal,> 100 µM
same,TGI,786-0 renal,> 100 µM
same,TGI,HCC-2998 colon,> 100 µM
same,TGI,U251 CNS,> 100 µM
same,TGI,LOX IMVI melanoma,> 100 µM
same,TGI,HCT-15 colon,> 100 µM
same,TGI,KM12 colon,> 100 µM
same,TGI,NCI-H522 lung,> 100 µM
same,TGI,MDA-MB-231 breast,> 100 µM
same,TGI,OVCAR-5 ovarian,> 100 µM
same,TGI,MALME-3M melanoma,> 100 µM
same,TGI,MDA-N,> 100 µM
same,TGI,SF-268 CNS,> 100 µM
same,TGI,SR leukemia,> 100 µM
same,TGI,ACHN renal,> 100 µM
same,TGI,NCI/ADR-RES ovarian,> 100 µM
same,TGI,SNB-19 CNS,> 100 µM
same,TGI,MDA-MB-435,> 100 µM
same,TGI,CCRF-CEM leukemia,> 100 µM
same,TGI,NCI-H23 lung,> 100 µM
same,TGI,SF-539 CNS,> 100 µM
same,TGI,T-47D breast,> 100 µM
same,TGI,SW-620 colon,> 100 µM
same,TGI,HS 578T breast,> 100 µM
same,TGI,COLO 205 colon,> 100 µM
same,TGI,OVCAR-3 ovarian,> 100 µM
same,TGI,SN12C renal,> 100 µM
same,TGI,MOLT-4 leukemia,> 100 µM
same,TGI,NCI-H226 lung,> 100 µM
same,TGI,A549 NSCLC,> 100 µM
same,TGI,RPMI-8226 leukemia,> 100 µM
same,TGI,OVCAR-4 ovarian,> 100 µM
same,TGI,A498 renal,> 100 µM
same,TGI,TK-10 renal,> 100 µM
same,TGI,NCI-H460 lung,> 100 µM
same,TGI,EKVX NSCLC,> 100 µM
same,TGI,SF-295 CNS,> 100 µM
same,TGI,SK-OV-3 ovarian,> 100 µM
same,TGI,HOP-62 NSCLC,> 100 µM
same,TGI,SK-MEL-5 melanoma,> 100 µM
same,TGI,UACC-257 melanoma,> 100 µM
same,TGI,SK-MEL-2 melanoma,> 100 µM
same,TGI,HOP-92 NSCLC,> 100 µM
same,TGI,RXF 393 renal,> 100 µM
same,TGI,SNB-75 CNS,> 100 µM
same,TGI,HCT-116 colon,> 100 µM
same,TGI,DU-145 prostate,> 100 µM
same,TGI,MCF7 breast,> 100 µM
